Laboratory results: US20230082430A1 (C4 Therapeutics, Inc., priority 2019, published 2023)

system: NCIH929.1 cells; experiment: Cell viability assay for Table 2 (CellTiter-Glo 2.0, ATP quantification, 96 hr); format: cell-based; settings: 96 h, NCIH929.1 cell viability, 96 hr, top concentration 1 μM, 14 points half log titration; read-out: IC50
Excerpt: Cell Viability Assay for Table 2
CellTiter-Glo® 2.0 Assay was purchased from Promega (Madison, Wis., USA). NCIH929.1 cell line was purchased from ATCC (Manassas, Va., USA). Cell culture flasks and 384-well microplates were acquired from VWR (Radnor, Pa., USA).

`O=C1CCC(N2C(=O)c3cccc4c(Cc5ccc(CN6CCC7(CCCC7)CC6)cc5)ccc2c34)C(=O)N1` (centres unmarked) [Compound 225, 3-(6-(4-((8-azaspiro[4.5]decan-8-yl)methyl)benzyl)-2-oxobenzo[cd]indol-1(2H)-yl)piperidine-2,6-dione] and `O=C1CCC(N2C(=O)c3cccc4c(Cc5ccc(CN6CCN(c7ccc(F)cc7F)CC6)cc5)ccc2c34)C(=O)N1` (single isomer, unassigned) [Compound 256, 3-(6-(4-((4-(2,4-difluorophenyl)piperazin-1-yl)methyl)benzyl)-2-oxobenzo[cd]indol-1(2H)-yl)piperidine-2,6-dione] cannot be ordered by IC50: under 1 nM for the first, under 1 nM for the second.

`N#Cc1ccc(N2CCN(C(=O)c3ccc(Cc4ccc5c6c(cccc46)C(=O)N5C4CCC(=O)NC4=O)cc3)CC2)c(F)c1` (centres unmarked) [Compound 196, 4-[4-[4-[[1-(2,6-dioxo-3-piperidyl)-2-oxo-benzo[cd]indol-6-yl]methyl]benzoyl]piperazin-1-yl]-3-fluoro-benzonitrile] and `N#Cc1ccc(N2CCN(Cc3ccc(Cc4ccc5c6c(cccc46)C(=O)N5C4CCC(=O)NC4=O)cc3)C(=O)C2)c(F)c1` (centres unmarked) [Compound 172, 4-[4-[[4-[[1-(2,6-dioxo-3-piperidyl)-2-oxo-benzo[cd]indol-6-yl]methyl]phenyl]methyl]-3-oxo-piperazin-1-yl]-3-fluoro-benzonitrile] cannot be ordered by IC50: under 1 nM for the first, under 1 nM for the second.

Compared with `CC(C)(C)OC(=O)N1CCC(c2ccc3c4c(cccc24)C(=O)N3C2CCC(=O)NC2=O)CC1` (centres unmarked) [Compound 276, tert-butyl 4-[1-(2,6-dioxo-3-piperidyl)-2-oxo-benzo[cd]indol-6-yl]piperidine-1-carboxylate], `COC(C)(C)C(=O)N1CCC(C)(n2cc(Cc3ccc4c5c(cccc35)C(=O)N4C3CCC(=O)NC3=O)cn2)CC1` (centres unmarked) [Compound 84, 3-(6-((1-(1-(2-methoxy-2-methylpropanoyl)-4-methylpiperidin-4-yl)-1H-pyrazol-4-yl)methyl)-2-oxobenzo[cd]indol-1(2H)-yl)piperidine-2,6-dione] is lower in IC50: over 999 nM for the first, under 1 nM for the second. The second is the more potent here.

`N#Cc1ccc(N2CCN(Cc3cnn(Cc4ccc5c6c(cccc46)C(=O)N5C4CCC(=O)NC4=O)c3)CC2)c(F)c1` (single isomer, unassigned) [Compound 129, 4-[4-[[1-[[1-[2,6-dioxo-3-piperidyl]-2-oxo-benzo[cd]indol-6-yl]methyl]pyrazol-4-yl]methyl]piperazin-1-yl]-3-fluoro-benzonitrile] and `O=C1CCC(N2C(=O)c3cccc4c(Cc5cnn(C6CCN(C(=O)c7ccccc7)CC6)c5)ccc2c34)C(=O)N1` (centres unmarked) [Compound 47, 3-(6-((1-(1-benzoylpiperidin-4-yl)-1H-pyrazol-4-yl)methyl)-2-oxobenzo[cd]indol-1(2H)-yl)piperidine-2,6-dione] cannot be ordered by IC50: under 1 nM for the first, under 1 nM for the second.

`O=C1CCC(N2C(=O)c3cccc4c(Cc5ccc(CC6CCN(c7ccc(F)cc7)CC6)cc5)ccc2c34)C(=O)N1` (centres unmarked) [Compound 203, 3-[6-[[4-[[1-(4-fluorophenyl)-4-piperidyl]methyl]phenyl]methyl]-2-oxo-benzo[cd]indol-1-yl]piperidine-2,6-dione] and `CC1(CN2CCC(n3cc(Cc4ccc5c6c(cccc46)C(=O)N5C4CCC(=O)NC4=O)cn3)(C(F)(F)F)CC2)CCC1` (centres unmarked) [Compound 191, 3-[6-[[1-[1-[(1-methylcyclobutyl)methyl]-4-(trifluoromethyl)-4-piperidyl]pyrazol-4-yl]methyl]-2-oxo-benzo[cd]indol-1-yl]piperidine-2,6-dione] cannot be ordered by IC50: under 1 nM for the first, under 1 nM for the second.

same assay, conditions: NCIH929.1 cell viability, 96 hr, top concentration 1 μM, 14 points half log titration; read-out: IC50

In the case of `O=C1CCC(N2C(=O)c3cccc4c(Cc5cnn(C6CCN(C7CCCC78CCC8)CC6)c5)ccc2c34)C(=O)N1` (single isomer, unassigned) [Compound 179, 3-[2-oxo-6-[[1-[1-[spiro[3.4]octan-8-yl]-4-piperidyl]pyrazol-4-yl]methyl]benzo[cd]indol-1-yl]piperidine-2,6-dione], the IC50 is reported as under 1 nM.
